The target of one experiment is Cannabinoid receptor 2 (Homo sapiens, UniProt P34972).
Experiment [1] has as its target T1, Fatty-acid amide hydrolase 1 [30-579] (Rattus norvegicus, UniProt P97612).
T1 construct: 30-579
T1 sequence (P97612 whole entry): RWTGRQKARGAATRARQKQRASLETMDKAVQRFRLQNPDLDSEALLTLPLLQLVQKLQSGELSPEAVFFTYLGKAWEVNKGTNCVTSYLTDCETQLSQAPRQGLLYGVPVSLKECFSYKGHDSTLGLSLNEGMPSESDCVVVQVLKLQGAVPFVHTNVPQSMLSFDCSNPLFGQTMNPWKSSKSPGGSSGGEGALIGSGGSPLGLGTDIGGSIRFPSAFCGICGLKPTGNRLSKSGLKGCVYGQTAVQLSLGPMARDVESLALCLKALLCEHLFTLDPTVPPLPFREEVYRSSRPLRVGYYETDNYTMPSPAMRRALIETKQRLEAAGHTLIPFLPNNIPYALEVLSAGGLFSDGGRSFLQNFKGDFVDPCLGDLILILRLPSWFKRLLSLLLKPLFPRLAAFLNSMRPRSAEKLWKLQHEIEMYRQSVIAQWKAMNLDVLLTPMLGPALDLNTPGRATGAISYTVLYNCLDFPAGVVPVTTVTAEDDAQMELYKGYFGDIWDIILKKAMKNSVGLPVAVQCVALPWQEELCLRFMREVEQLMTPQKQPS

The next experiment deals with Cannabinoid receptor 1 (Homo sapiens, UniProt P21554).
Chain of Cannabinoid receptor 1 (P21554 whole entry): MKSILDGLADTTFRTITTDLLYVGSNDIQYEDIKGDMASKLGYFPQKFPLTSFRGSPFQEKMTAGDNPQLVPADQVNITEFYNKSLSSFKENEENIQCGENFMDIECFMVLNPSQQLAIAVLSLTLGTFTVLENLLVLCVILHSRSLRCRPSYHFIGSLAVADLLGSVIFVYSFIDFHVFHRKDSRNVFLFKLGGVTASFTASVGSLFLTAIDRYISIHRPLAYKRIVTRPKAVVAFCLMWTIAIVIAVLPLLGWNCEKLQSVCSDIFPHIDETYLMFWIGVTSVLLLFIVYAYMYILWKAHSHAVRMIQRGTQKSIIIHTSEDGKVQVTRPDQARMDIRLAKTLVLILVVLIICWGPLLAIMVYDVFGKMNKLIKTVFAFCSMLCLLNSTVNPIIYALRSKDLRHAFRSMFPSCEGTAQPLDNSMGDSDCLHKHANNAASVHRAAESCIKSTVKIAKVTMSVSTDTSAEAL

Molecules are shown by their SMILES.

Chain of Cannabinoid receptor 2 (P34972 whole entry): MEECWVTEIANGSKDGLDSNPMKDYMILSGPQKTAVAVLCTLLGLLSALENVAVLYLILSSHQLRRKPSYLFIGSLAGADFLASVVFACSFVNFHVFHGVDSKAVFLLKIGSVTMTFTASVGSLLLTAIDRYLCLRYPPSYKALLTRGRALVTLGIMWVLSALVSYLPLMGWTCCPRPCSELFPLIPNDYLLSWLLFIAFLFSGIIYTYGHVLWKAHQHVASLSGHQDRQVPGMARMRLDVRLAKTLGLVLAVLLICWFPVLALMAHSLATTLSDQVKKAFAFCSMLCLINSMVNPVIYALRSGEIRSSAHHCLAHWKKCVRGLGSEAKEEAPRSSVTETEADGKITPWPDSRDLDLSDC

A word on the Ki: it is a measure of affinity in units of concentration, obtained from inhibition or displacement. A higher Ki goes with a looser hold on the target. As to `COc1cc(CNC(=O)CCCCC=CC(C)C)ccc1O` [CAS_404-86-4], the Ki (on Cannabinoid receptor 2; in experiment [1]) was over 10 µM in each case.

In the case of `CCCCCCCCC=CCCCCCCCC(=O)NCc1ccc(O)c(OC)c1` [CAS_58493-49-5], the Ki (on Cannabinoid receptor 2; at Cannabinoid receptor 1; in experiment [1]) was over 10 µM in each case.

On to `CCCCCC[C@H](CC=CCCCCCCCC(=O)NCc1cc(I)c(O)c(OC)c1)OC(=O)Cc1ccccc1` [PhAR, 5-I], for which the Ki is 1.5 µM on Cannabinoid receptor 2, 5 µM at Cannabinoid receptor 1 and over 10 µM in experiment [1].

Take `CCCCCC[C@H](CC=CCCCCCCCC(=O)NCc1cc(OC)c(O)cc1I)OC(=O)Cc1ccccc1` [PhAR, 6-I]: the results for the Ki (at Cannabinoid receptor 2; at Cannabinoid receptor 1; in experiment [1]) were 2.2 µM, 2.5 µM and over 10 µM, respectively.

For `CCCCCCC(CCCCCCCCCCC(=O)NCc1ccc(O)c(OC)c1)OC(=O)Cc1ccccc1` (stereo not given) [PhAR, Di-hydro], the figures for the Ki (at Cannabinoid receptor 2; at Cannabinoid receptor 1; in experiment [1]) were 1.1 µM, 5 µM and over 10 µM, respectively.

For the compound `CCCCCCC(C/C=C/CCCCCCCC(=O)NCc1ccc(O)c(OC)c1)OC(=O)Cc1ccccc1` (stereo not drawn) [PhAR, ent], the Ki at Cannabinoid receptor 2 is 0.4 µM; at Cannabinoid receptor 1 it was 2.4 µM; in experiment [1], over 10 µM.

For `CCCCCC[C@H](CC=CCCCCCCCC(=O)NCc1ccc(O)c(OC)c1)OC(=O)Cc1ccccc1` [PhAR], the Ki was 0.3 µM at Cannabinoid receptor 2, 2.2 µM on Cannabinoid receptor 1 and over 10 µM in experiment [1].

Regarding `CCCCCC[C@H](CC=CCCCCCCCC(=O)NCc1ccc(O)c(OC)c1)OC(C)=O` [Rinvanil, Acetyl], the Ki (at Cannabinoid receptor 2; on Cannabinoid receptor 1; in experiment [1]) was over 10 µM in each case.

Turning to `CCCCCC[C@H](CC=CCCCCCCCC(=O)NCc1ccc(O)c(OC)c1)OC(=O)c1ccccc1` [Rinvanil, Benzoil], the figures for the Ki (at Cannabinoid receptor 2; on Cannabinoid receptor 1; in experiment [1]) were 1.4 µM, 1.3 µM and over 10 µM, respectively.

As for `CCCCCC[C@H](CC=CCCCCCCCC(=O)NCc1ccc(O)c(OC)c1)OC(=O)CCc1ccccc1` [Rinvanil, Phenyl-propionyl], the Ki in experiment [1] was over 10 µM.

For the compound `CCCCCC[C@@H](O)CC=CCCCCCCCC(=O)NCc1ccc(O)c(OC)c1` [Rinvanil], the inhibitory constant (Ki) (on Cannabinoid receptor 2; at Cannabinoid receptor 1; in experiment [1]) was over 10 µM in each case.

Source of the values: BindingDB's records for doi:10.1124/jpet.104.074864 (University of Piemonte Orientale, 2005).
